Assays:
OATP2B1 [1] = target: T1, OATP2B1 (Homo sapiens, UniProt O94956); assay: Caco-2 transport of CA with OATP2B1 inhibitor baicalin; format: in vitro ADME; settings: 6 μM baicalin
T1 sequence (O94956 1-709): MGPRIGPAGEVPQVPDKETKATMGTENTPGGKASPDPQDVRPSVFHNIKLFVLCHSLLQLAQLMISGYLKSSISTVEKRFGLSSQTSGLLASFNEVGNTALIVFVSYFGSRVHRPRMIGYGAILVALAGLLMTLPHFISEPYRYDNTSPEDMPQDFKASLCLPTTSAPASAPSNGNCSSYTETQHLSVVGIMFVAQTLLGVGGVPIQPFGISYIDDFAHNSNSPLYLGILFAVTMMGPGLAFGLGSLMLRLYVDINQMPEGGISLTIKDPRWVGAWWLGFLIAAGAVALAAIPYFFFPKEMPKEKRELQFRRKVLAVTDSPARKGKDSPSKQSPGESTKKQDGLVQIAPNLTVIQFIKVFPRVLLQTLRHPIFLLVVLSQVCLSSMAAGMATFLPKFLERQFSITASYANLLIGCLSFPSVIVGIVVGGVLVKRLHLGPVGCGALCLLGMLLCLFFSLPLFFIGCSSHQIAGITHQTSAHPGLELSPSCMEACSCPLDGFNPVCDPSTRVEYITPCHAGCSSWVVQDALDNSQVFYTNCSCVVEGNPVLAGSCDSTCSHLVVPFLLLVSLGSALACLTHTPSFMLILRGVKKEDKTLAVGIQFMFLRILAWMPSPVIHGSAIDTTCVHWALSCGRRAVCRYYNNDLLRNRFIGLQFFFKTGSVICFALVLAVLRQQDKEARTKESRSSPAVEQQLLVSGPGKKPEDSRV

P-glycoprotein (Pgp) = P-glycoprotein (Pgp) (Homo sapiens, UniProt P08183); assay: Caco-2 transport of CA with Pgp inhibitor GF120918; format: in vitro ADME; settings: 2 μM GF120918
OATP2B1 [2] = target: T1, OATP2B1; settings: read-out: IC50, reduction of influx of substrates of OATP2B1; cited from earlier work

Chain of P-glycoprotein (Pgp) (P08183 whole entry): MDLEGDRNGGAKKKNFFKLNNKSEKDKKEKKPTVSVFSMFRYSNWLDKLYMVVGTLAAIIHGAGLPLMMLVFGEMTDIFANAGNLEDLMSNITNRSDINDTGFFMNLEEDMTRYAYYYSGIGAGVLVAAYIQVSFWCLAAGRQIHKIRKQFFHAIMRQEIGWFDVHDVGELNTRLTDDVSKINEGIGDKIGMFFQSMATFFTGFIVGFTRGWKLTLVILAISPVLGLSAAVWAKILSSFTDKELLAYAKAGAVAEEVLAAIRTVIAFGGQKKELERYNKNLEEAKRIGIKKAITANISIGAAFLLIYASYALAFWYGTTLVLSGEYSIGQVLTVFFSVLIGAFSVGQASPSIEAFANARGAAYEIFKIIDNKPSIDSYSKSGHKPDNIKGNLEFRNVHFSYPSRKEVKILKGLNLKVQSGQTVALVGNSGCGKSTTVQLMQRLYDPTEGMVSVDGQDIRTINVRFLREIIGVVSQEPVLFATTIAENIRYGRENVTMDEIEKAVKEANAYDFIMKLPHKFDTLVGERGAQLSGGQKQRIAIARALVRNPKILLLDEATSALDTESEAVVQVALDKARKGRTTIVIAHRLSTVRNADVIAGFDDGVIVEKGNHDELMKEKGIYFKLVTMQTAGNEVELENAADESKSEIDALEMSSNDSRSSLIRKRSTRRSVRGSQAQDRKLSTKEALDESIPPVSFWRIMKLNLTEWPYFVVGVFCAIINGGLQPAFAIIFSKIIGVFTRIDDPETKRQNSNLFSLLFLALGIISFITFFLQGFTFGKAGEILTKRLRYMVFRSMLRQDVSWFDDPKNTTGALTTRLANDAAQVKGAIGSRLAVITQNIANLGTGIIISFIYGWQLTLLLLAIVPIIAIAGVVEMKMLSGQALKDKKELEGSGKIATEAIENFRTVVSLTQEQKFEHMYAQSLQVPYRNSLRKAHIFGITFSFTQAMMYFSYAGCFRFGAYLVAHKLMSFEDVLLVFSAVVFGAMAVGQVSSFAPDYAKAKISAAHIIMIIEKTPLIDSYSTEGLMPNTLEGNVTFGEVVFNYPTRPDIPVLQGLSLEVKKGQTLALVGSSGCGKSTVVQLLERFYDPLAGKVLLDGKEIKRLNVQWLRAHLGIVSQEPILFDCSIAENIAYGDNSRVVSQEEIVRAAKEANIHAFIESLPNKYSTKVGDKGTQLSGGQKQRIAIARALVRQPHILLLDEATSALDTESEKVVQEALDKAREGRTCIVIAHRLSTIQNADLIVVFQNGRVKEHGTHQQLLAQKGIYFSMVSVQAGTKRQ

Decrease of Papp B–A after baicalin treatment (OATP2B1 [1]) | Decrease of Papp B–A after GF120918 treatment (P-glycoprotein (Pgp)) | Compound | IC50 (OATP2B1 [2])
63% | 62% | Chicoric acid [CA] | –
– | – | O=C(O)[C@H]1O[C@@H](Oc2cc3oc(-c4ccccc4)cc(=O)c3c(O)c2O)[C@H](O)[C@@H](O)[C@@H]1O [baicalin] | 5.6 ± 3.2 µM
